Test results reported in patent publication US20180078525A1, “COMPOSITION FOR GROWTH PROMOTION, CONTAINING COUMARIC ACID AS ACTIVE INGREDIENT” (KOREA MEDICINE RESEARCH INSTITUTE, INC, priority 2014, published 2018).

Legend:
Sprague-Dawley rats [1] = experiment: Analysis of growth plate (heights of proliferative and hypertrophic zones); format: in vivo, rat; settings: after 10-day administration; for height of the proliferative zone of the growth plate: average, control group 0.77 mm; for height of the hypertrophic zone of the growth plate: control group 1.10 mm
Description: In a control group, saline was injected. […] To assess the growth effect of coumaric acid, the growth plate of each rat was analyzed. In Experimental Example <1-1>, after the 10-day administration was completed, right and left tibias (shinbones) were extracted from the experimental group and the control groups according to this invention, all the muscles, fat and ligaments attached to bone tissue were removed, and then the resulting specimen was stored in 70% alcohol, demineralized, and then dehydrated. Afterward, the resulting specimen was washed with xylene, and then put into a paraffin block. Subsequently, the specimen was cut to a thickness of 4 μm, and then the heights of the proliferative zone and the hypertrophic zone in the growth plate were measured using a BX50 microscope (Olympus).

cartilage cells = experiment: Proliferation of cartilage cells in proximal tibia (BrdU staining); format: in vivo, rat; settings: rats, after 10-day administration, BrdU 30 mg/kg i.p., 2 hours before autopsy; control group 0.13%
Description: (§1) In a control group, saline was injected. […] The drug administered to each group is as follows:
To confirm whether the effect of coumaric acid on bone growth is caused by the proliferation of cartilage cells, cartilage cells were observed. In Experimental Example <1-1>, after the 10-day administration was completed, rats of the experimental group and the control groups according to this invention were intraperitoneally administered with a dose of 30 mg/kg of 5-bromo-2′-deoxyuridine (BrdU) on the day of the experiment. Two hours later, autopsies were carried out to extract legs, and then the legs were stored in 4% PFA for 24 hours. Following embedding and sectioning, cartilage cells which were stained using a BrdU staining kit (Invitrogen, Carlsbad, Calif., USA) were observed.

growth hormone = experiment: Growth hormone levels in blood (Growth Hormone Rat ELISA Kit); format: in vivo; settings: rat serum, after 10-day administration; control group 3.97 ng/ml
Description: as §1
To confirm whether coumaric acid affects the secretion level of the growth hormone, a growth hormone level in the blood of each rat was measured. […] The measurement of the growth hormone levels were carried out using a Growth Hormone Rat ELISA Kit (Life Technologies, KRC5311).

IGF-1 = IGF-1 protein levels in blood (IGF1 ELISA Kit); format: in vivo; settings: rat serum, after 10-day administration; control group 0.84 mg/kg
Description: as §1
To confirm whether coumaric acid affects the secretion levels of IGF-1, […], IGF-1 protein levels were measured. In Experimental Example <1-1>, after the 10-day administration was completed, the rats of the experimental group and the control groups according to this invention were anesthetized on the day of the experiment, and then blood was extracted therefrom using a syringe and centrifuged to obtain serum. The measurement of the IGF-1 levels was carried out using an IGF1 ELISA Kit (Abcam, ab100695).

[2] = Changes in the body weight of laboratory animals; settings: male Sprague-Dawley rats, 10-day administration; coumaric acid 100 mg/kg oral, growth hormone 20 μg/kg s.c., once daily
Description: Three-week-old male Sprague-Dawley rats were purchased and acclimated for three days. A breeding environment was altered to a 24-hour pattern, a light/dark cycle was maintained at 12-hour intervals, and antibiotic-free normal solid feed was used. In a control group, saline was injected. In a positive control group, Eutropin Injection (LG Bioscience Korea) was subcutaneously injected at a dose of 20 μg/kg once a day. The coumaric acid of this invention was administered to the oral cavity of all rats of a coumaric acid group, once daily.
After feeding and administering the coumaric acid to the rats for 10 days, autopsies were carried out to confirm the following content.
The measurement was carried out twice a week. The measured values were statistically analyzed to calculate mean±standard deviation.

Sprague-Dawley rats [3] = experiment: Total tibial length by X-ray radiography; format: in vivo, rat; settings: after 10-day administration, coumaric acid 100 mg/kg oral, growth hormone 20 μg/kg s.c.
Description: as §1
To assess the effect of coumaric acid on growth promotion, total tibial length of rats were measured. In Experimental Example <1-1>, after the 10-day administration was completed, right and left tibias (shinbones) were extracted from the control groups and the coumaric acid-fed experimental group according to this invention, all the muscles, fat and ligaments attached to bone tissue were removed, and then the resulting specimen was stored in 70% alcohol, followed by radiographic analysis using an X-ray imaging instrument (OM-FORTE-10121, DK Medical Systems). For the analysis, 55 kV, […] X-ray sources were used. The total tibial length was measured by X-ray radiography.

Compound	height of the proliferative zone of the growth plate (Sprague-Dawley rats [1]) [mm]	height of the hypertrophic zone of the growth plate (Sprague-Dawley rats [1]) [mm]	ratio of BrdU-labeled cells with respect to total cells (cartilage cells) [%]	growth hormone level in blood (growth hormone) [ng/mL]	IGF-1 protein level (IGF-1) [mg/kg]	body weight vs control group [2]	total tibial length vs control group (Sprague-Dawley rats [3])
O=C(O)/C=C/c1ccc(O)cc1 [coumaric acid]	0.98	1.27	0.18	7.62	1.23	almost no difference	
growth hormone: positive control: Eutropin Injection (LG Bioscience Korea), growth hormone, subcutaneously injected at 20 μg/kg once a day	1.13	1.44	0.18	11.89	1.31		greater than the control group
